These results are taken from patent US20260327655A1, “SMALL-MOLECULE REGULATED ALTERNATIVE SPLICING” (priority 2023, published 2026).

For assay [1], the system named is RS2-3 minigene (Firefly Luciferase), HEK-293T cells. Kind of assay: Luciferase induction assay, RS2-3 with splice modulator compounds in HEK-293T cells. Format: cell-based. Conditions: Homo sapiens, 18 hours, n of 3, read-out: Mean fold-induction of luciferase (relative to vehicle control).
Assay [2] has as its system RS1-10, HEK-293T cells. Kind of assay: RS1-10 performance in HEK-293T cells. The format is cell-based, human. The conditions noted are these: CMV promoter, 18 hours, FIG. 10A. As for the experimental part: Human cell line HEK-293T cells or NIH-3T3 mouse fibroblast cell line cells were cultured in DMEM+10% FBS, collected after trypsinization, and then dispensed into 96-well plates (cell culture-treated). Each well of the plate was seeded with 1.0×10^5 cells in 100 μL culture medium. After a 1-hour incubation in the tissue culture incubator (5% CO2, 37 degrees C.), plasmid DNA was complexed with a transfection reagent, such as Lipofectamine 3000, and added to respective wells on the plate. Each well received an equivalent of 100 ng of plasmid DNA complexed with 0.15 μL Lipofectamine 3000. Triplicate wells were used for each condition tested in the experiment. The plasmid utilized in the experiments for HEK-293T cells and NIH-3T3 mouse fibroblast cells encoded a CMV promoter upstream of the RS1-10 construct that controlled the expression of a Firefly Luciferase gene followed by a SV40 polyadenylation signal. After a 10-minute incubation at room temperature, either DMSO vehicle or 24 A at specified doses was added to the wells of the plate. Plates were then incubated for 18 hours in a tissue culture incubator. Endpoint analysis was performed by adding 100 uL of a Luciferase substrate, such as Steady-Luc Firefly Luciferase substrate, to each well of the assay plate. […] Finally, the luminescent signal from each well was measured with a plate reader. […]

Assay [3] deals with RS1-10. Briefly: In vivo mouse study of RS1-10 activation (AAV-PHP.eB, bioluminescent imaging). More on the design: species or system C57BL/6 mice. The conditions noted are these: 10 mg/kg single oral gavage. As to the method: C57BL/6 mice underwent tail vein injection of 3.00E+11 vector (depicted in FIG. 11A) genomes/mouse AAV vector composed of a genome containing a cloned human Synapsin promoter driving the expression of a Firefly Luciferase gene. Expression of the luciferase gene was gated by the RS1-10 switch. The AAV vector utilized a brain-penetrant AAV-PHP.eB capsid (FIG. 11A). At approximately 3 weeks after AAV delivery, mice were either dosed with compound vehicle or 10 mg/kg 24 A as a single oral gavage. 6 hours after the oral dosing, mice were intraperitoneally administered D-Luciferin (150 mg/kg), anesthetized, and imaged with a bioluminescent imaging (BLI) system to analyze activation of RS1-10. Light flux from expressed Firefly Luciferase was measured from the whole body of each mouse as radiance and a brightfield image was also taken as an anatomical reference (FIG. 11B). […]
C57BL/6 mice underwent tail vein injection of 3.00E+11 vector genomes/mouse AAV vector composed of a genome containing a cloned human Synapsin promoter driving the expression of a Firefly Luciferase gene. […] Light flux from expressed Firefly Luciferase was measured from the whole body of each mouse as radiance and a brightfield image was also taken as an anatomical reference. […]

Assay [4] relates to RS1-10 and RS1-X1. Briefly: Luminescence of RS1-10 and RS1-X1 in HEK-293T cells. The format is cell-based, human. The conditions noted are these: 85 nM, 24 hours, RS1-X1 vs RS1-10, FIG. 8B. As for the experimental part: A plasmid pool that was transfected into HEK-293T cells was treated for 24 hours with splice modulator 24 A at a concentration of 85 nM. RS1-10 was the starting minigene sequence and a variant switch sequence was identified from the switch sequence screen containing a 28 nucleotide intronic deletion compared to the RS1-10 sequence. […]. RS1-10 controlling a firefly luciferase gene or RS1-X1 controlling a firefly luciferase gene were cloned into individual expression plasmids containing a CMV promoter. HEK 293T cells were transfected with either the RS1-10 or RST-XT expression plasmid and were then treated for 24 hours with 85 nM 24 A while incubated in a tissue culture incubator (37° C., 5% CO2). The luminescence was measured as an endpoint analysis by adding 100 μL of a Luciferase substrate, such as Steady-Luc Firefly Luciferase substrate, to each well of the assay plate. The liquid contents of each well was transferred to a 96-well plate, mixed again for 2 min on an orbital shaker, and incubated at room temperature for 5 min. Finally, the luminescent signal from each well was measured with a plate reader (FIG. 8B).

In the case of `CCN1CC(c2ccc(-c3ccc(-c4ccc5nn(C)cc5c4)cc3O)nn2)C1` [Compound 24A, 2-[6-(1-ethylazetidin-3-yl)pyridazin-3-yl]-5-(2-methyl-2H-indazol-5-yl)phenol], the fold induction at 0.1 µM in assay [1] (RS2-3, 100 nM) stood at 14.5. Also, in assay [1] (RS2-3, 1,000 nM), the fold induction at 1 µM is 42.6. Moreover, the fold-induction of luciferase entry in assay [2] was “increasing fold-induction of luciferase with increasing concentrations of 24 A”. The “light flux from the heads of mice (bioluminescent imaging)” value in assay [3] (6 hours post dose, ~3 weeks after AAV delivery, vs vehicle) was “Significant increases in light flux”. The “bioluminescent signal after drug washout” value in assay [3] (7 days post dose) is on record as “No significant signal was detected”. For the same compound, the “luminescence (RLU)” value in assay [4] is “RS1-X1 produced a higher luminescence (RLU) than RS1-10”.
